The conditions of data set [1]: published pharmacokinetic studies; cited from earlier work.
Data set [2] has as its system cyclooygenase. As to conditions: in vitro; cited from earlier work.
The subject of data set [3] is LS1034 cells. Description: CellTiter-Glo cellular viability assay, killing of LS1034 cells. It counts as cell-based, human. As to conditions: for IC50: Homo sapiens, LS-1034. As to the method: (§1) Cell viability was assayed using a modified manufacturer's protocol for CellTiter-Glo® (Promega #G7573). Cells were seeded at a density of 2000 cells per well in a 96 well black, clear bottom plate (Corning #89091-012) in 100 uL total media per well. The following day different concentrations of compounds at various doses were printed in triplicate in a random well format using the Tecan D300e Digital Dispenser. After 120H, 60 μL of a 1:3 solution of CellTiterGlo reagent in 1×PBS (Corning #01018002) was added per well and allowed to incubate at RT for 10 mins. Luminescence was measured with an integration time of 0.1 s using Envision Microplates Reader (PERKIN ELMER #2105-0010). Biological replicates were averaged and normalized to vehicle control. Dose curves were generated using Graphpad Prism.

Data set [4] deals with T1, MDR1 (Homo sapiens, UniProt P08183). The experiment in a line: P-Glycoprotein transporter cell based antagonism assay (calcein AM assay). The following applies: read-out: IC50 in calcein AM assay; relies upon cell-permeability of compounds.
The test system of data set [5] is LS1034 cells. Description: Compound cell permeability assay (LC-MS). The following applies: 3 hour incubation, 20 μM, with or without ABCB1 knockout or elacridar.
Description: (§2) Compound was incubated in naïve cell media (no cell control, or NCC) or in the presence of cells at 1 million cells/mL. The incubation was carried out in a 37° C. with 5% CO2 cell incubator with gentle plate shaking for 3 hours. Following the incubation, the NCC samples were placed on the bench until final analysis. Cell samples were centrifuged at 500×g for 5 minutes. The supernatant was removed, and the cells were washed twice with cold PBS. Cells were again centrifuged at 500×g for 5 minutes, the supernatant was removed/discarded, and cells were resuspended in 130 pL water (Honeywell, catalog #33015-1L). The entire volume was then transferred into a Covaris microTUBE plate (Covaris, catalog #220078) and sonicated on a Covaris LE220 focused-ultrasonicator. Samples were transferred to a 96wp and centrifuged at 3000×g for 15 min at 20° C. The supernatant was transferred to a new 96wp. For both the NCC and cell samples, 5 pL was transferred to a 96wp. To each sample was added 45 pL cell media, 50 pL water, and 50 pL acetonitrile containing internal standard. […]
(§3) Samples were analyzed on a UPLC-MS/MS system consisting of a Waters Acquity I-Class FTN and AB Sciex 4500 Triple Quad mass spectrometer with compounds being detected by positive mode MRM detection. […] Sample concentrations were determined using a standard curve and dilution quality control samples prepared in a surrogate matrix. […]
Data set [6] relates to barcode-tagged neoplastic cell line populations sorted by ABCB1 expression. The experiment in a line: PRISM multiplexed cellular viability screen, cell killing plotted against ABCB1 expression. As to conditions: for Phenocopy of tepoxalin activity in PRISM: tested at the same dose.
Description: PRISM cell line barcoding, pooling, and screening was performed as previously described with several improvements to the original method (5). First, the lentiviral vector was modified to encode the unique barcode identifier at the end of the puromycin resistance gene. This enables barcodes to be detected using a variant of the mRNA capture and Luminex detection method developed for the L1000 gene expression assay (6). Second, a set of ten inert barcodes were spiked-in to each well of each plate after cell lysis to control for variation in PCR amplification as detailed below.
Cell viability was calculated as the ratio of nMFI to the median of the nMFI from the DMSO-treated negative controls for each cell line on each plate. Batch effects produced from variable detection and assay conditions were then removed using ComBat (8). The final viability values were calculated as the median of the batch-corrected cell viabilities from biological replicates for each cell line, compound and dose.
Measures of dose response were obtained by fitting 3-parameter logistic curves to viability values for each compound and cell line using the R package ‘drc’. Following the practice of Smirnov and Safikhani (9), viability was truncated at 1.0 and fit as a function of drug concentration according to:
High-throughput “next gen” sequencing performed upon arrayed cell populations allowed for well-by-well tracking of cell viability over time, in the presence and absence of library compounds, via barcode enumeration and deconvolution of treated and control cell line populations. Using this approach, cell viability dose-response curves were generated for each compound of the drug repurposing library, across all targeted cell lines present in the barcode-tagged neoplastic cell line “PRISM” populations.
By sorting the “PRISM” population cell lines by their respective relative levels of ABCB1 expression (as assessed by RNAseq), the cell killing profile of each drug repurposing library compound tested could be plotted against relative levels of ABCB1 expression, thereby obtaining a cell killing profile that served as a proxy for dose-response of the library compound across progressively increasing levels of ABCB1 expression.
Data set [7] has as its system Kuramochi-ABCB1 cells. The experiment in a line: Killing of native Kuramochi cells versus Kuramochi cells overexpressing ABCB1 (Kuramochi-ABCB1). In kind it is cell-based, human. As to conditions: for Change of compound-mediated killing with overexpressed ABCB1: Kuramochi-ABCB1 versus native Kuramochi cells. As for the experimental part: Cell viability was assayed using a modified manufacturer's protocol for CellTiter-Glo® (Promega #G7573). […] The following day different concentrations of compounds at various doses were printed in triplicate in a random well format using the Tecan D300e Digital Dispenser. […] Biological replicates were averaged and normalized to vehicle control. Dose curves were generated using Graphpad Prism.
Next, the consequence of ectopic ABCB1 overexpression in cells resistant to tepoxalin was evaluated.

The test system of data set [8] is REC1 cells. Description: Expanded cell line viability comparison, killing of REC1 cells. As to conditions: REC1 versus LS1034. It counts as cell-based, human. As to the method:
as §1

Data set [9] relates to LS1034 cells.
Description: as §2, §3
For data set [10], the target named is T1, MDR1. Description: cell-based.
For data set [11] the following is noted: rat model, compared with naproxen; cited from earlier work.
Data set [12] has as its target T1, MDR1. Description: cell-based. The source holds these as a separate data set.
Data set [13] concerns LS1034 cells administered sg ABCB1-2. The experiment in a line: Viability of LS1034 cells given control sgRNA (sg GFP) or ABCB1 knockdown sgRNA (sg ABCB1-2). It counts as cell-based, human. The following applies: sg ABCB1-2 compared to control sgRNA sg GFP. As to the method:
A mixture of 3E6 cells, virus, and media with 4 μg/mL polybrene (Millipore) at a total volume of 2 mL was plated per well of a 12 well plate. Cells were centrifuged at 2000 RPM for 2 hours at 30° C. After removal from incubator, 2 mL of fresh media was added to each well and cells were allowed to incubate at 37° C. overnight. The following day cells were selected for with puromycin for 3-10 days, or until the non-infected control cell were completely non-viable.
as §1, with “Prism. […]” for “Prism.”

[14] abbreviates: PRISM population, ABCB1 expression by RNAseq.
The mark [15] stands for this setting: read-out: IC50 value (absolute) in killing LS1034 cells.

Read-outs that look alike come from different tables or passages of the source.

T1 sequence (P08183 whole entry): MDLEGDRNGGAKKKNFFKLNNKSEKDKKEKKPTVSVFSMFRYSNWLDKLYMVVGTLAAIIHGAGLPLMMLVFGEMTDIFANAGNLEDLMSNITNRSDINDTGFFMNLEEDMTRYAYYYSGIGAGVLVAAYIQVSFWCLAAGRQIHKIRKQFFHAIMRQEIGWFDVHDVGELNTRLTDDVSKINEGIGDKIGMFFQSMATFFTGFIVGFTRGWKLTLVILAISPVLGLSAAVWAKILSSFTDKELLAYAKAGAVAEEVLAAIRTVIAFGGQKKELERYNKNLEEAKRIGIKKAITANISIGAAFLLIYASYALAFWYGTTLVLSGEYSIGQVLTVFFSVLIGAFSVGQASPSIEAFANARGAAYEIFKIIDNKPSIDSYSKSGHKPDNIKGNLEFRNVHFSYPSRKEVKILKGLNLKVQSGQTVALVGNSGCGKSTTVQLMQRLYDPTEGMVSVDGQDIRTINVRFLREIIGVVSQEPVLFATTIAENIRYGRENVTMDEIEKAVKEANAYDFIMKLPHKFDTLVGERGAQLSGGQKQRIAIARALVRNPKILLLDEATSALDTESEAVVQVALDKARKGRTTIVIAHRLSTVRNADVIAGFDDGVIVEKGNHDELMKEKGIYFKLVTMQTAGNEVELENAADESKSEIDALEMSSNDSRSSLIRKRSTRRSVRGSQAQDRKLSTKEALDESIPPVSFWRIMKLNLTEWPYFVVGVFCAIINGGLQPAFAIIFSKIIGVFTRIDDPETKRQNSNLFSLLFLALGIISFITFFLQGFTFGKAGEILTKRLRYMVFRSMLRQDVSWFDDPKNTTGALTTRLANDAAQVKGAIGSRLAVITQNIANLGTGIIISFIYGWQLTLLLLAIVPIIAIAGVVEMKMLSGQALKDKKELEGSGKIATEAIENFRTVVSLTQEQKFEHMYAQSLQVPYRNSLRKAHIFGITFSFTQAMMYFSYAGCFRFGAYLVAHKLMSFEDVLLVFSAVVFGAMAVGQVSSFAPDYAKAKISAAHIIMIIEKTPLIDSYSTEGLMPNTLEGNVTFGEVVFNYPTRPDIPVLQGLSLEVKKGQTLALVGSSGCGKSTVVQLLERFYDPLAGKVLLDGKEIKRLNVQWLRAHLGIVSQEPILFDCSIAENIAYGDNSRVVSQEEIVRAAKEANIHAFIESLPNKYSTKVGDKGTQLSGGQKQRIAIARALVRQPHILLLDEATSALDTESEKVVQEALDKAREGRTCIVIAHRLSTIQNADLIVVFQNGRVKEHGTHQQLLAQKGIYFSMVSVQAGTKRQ

In general, IC50 refers to the concentration that gives 50% inhibition. `COc1ccc(-n2nc(CCC(=O)O)cc2-c2ccc(Cl)cc2)cc1` [RWJ20142]: the “Maximal plasma concentration relative to parent compound” value in data set [1] is “higher maximal plasma concentration than the parent compound”. For the same molecule, the Activity against cyclooxygenase result in data set [2] was “active”. The “Viability of treated LS1034 cells” value in data set [3] (LS1034 cells) was “no decrease in viability”. Besides, the IC50 in [4] is over 100 µM. Moreover, the Cell permeability entry in [5] is given as “cell impermeability”.

In the case of `CC(C)C[C@H](NC(=O)[C@H](CCc1ccccc1)NC(=O)CN1CCOCC1)C(=O)N[C@@H](Cc1ccccc1)C(=O)N[C@@H](CC(C)C)C(=O)[C@@]1(C)CO1` [carfilzomib, Carfilzomib], the “Cell killing profile against relative levels of ABCB1 expression” value in data set [6] (setting [14]) is recorded as “robust killing of cells that expressed low levels of ABCB1”.

Take `COc1cccc2c1C(=O)c1c(O)c3c(c(O)c1C2=O)C[C@@](O)(C(C)=O)C[C@@H]3O[C@H]1C[C@H](N)[C@H](O)[C@H](C)O1` [daunorubicin, Daunorubicin]: the “Cell killing profile against relative levels of ABCB1 expression” value in [6] is “robust killing of cells that expressed low levels of ABCB1”.

For `CC(=O)O[C@@]12CO[C@@H]1C[C@H](O)[C@@]1(C)C(=O)[C@H](O)C3=C(C)[C@@H](OC(=O)[C@H](O)[C@@H](NC(=O)OC(C)(C)C)c4ccccc4)C[C@@](O)([C@@H](OC(=O)c4ccccc4)[C@H]21)C3(C)C` [docetaxel, Docetaxel], the “Cell killing profile against relative levels of ABCB1 expression” value in [6] (setting [14]) is listed as “robust killing of cells that expressed low levels of ABCB1”.

With `O=C(C(c1ccccc1)c1ccccc1)N1CCN(CC(O)COc2cccc3ncccc23)CC1` (stereo not drawn) [dofequidar], in [3] (setting [15]), the half-maximal inhibitory concentration (IC50) was over 10 µM.

Take `COc1cccc2c1C(=O)c1c(O)c3c(c(O)c1C2=O)C[C@@](O)(C(=O)CO)C[C@@H]3O[C@H]1C[C@H](N)[C@H](O)[C@H](C)O1` [doxorubicin, Doxorubicin]: the “Cell killing profile against relative levels of ABCB1 expression” value in data set [6] (setting [14]) is “robust killing of cells that expressed low levels of ABCB1”. In addition, the “Change of compound-mediated killing with overexpressed ABCB1” value (“Change of compound-mediated killing” for short) in data set [7] (144 hours) is recorded as “dampened”.

With `COc1cc2c(cc1OC)CN(CCc1ccc(NC(=O)c3cccc4c(=O)c5cccc(OC)c5[nH]c34)cc1)CC2` [elacridar], the “Phenocopy of tepoxalin activity in PRISM” value in data set [6] is “did not phenocopy tepoxalin”. Besides, in data set [8], the “Killing of REC1 cells compared with LS1034 cells (IC50 comparison)” value is “comparable IC50 values for REC1 killing and LS1034 killing”. The “Cell killing by the compound alone in native and ABCB1-overexpressing Kuramochi cells” value in data set [7] (144 hours) is reported as “only modest cell killing”. Also, the IC50 in data set [3] (setting [15]) worked out at 1.9 µM.

Consider `COc1cccc2c1C(=O)c1c(O)c3c(c(O)c1C2=O)C[C@@](O)(C(=O)CO)C[C@@H]3O[C@H]1C[C@H](N)[C@@H](O)[C@H](C)O1` [epirubicin, Epirubicin], for which the “Cell killing profile against relative levels of ABCB1 expression” value in data set [6] (setting [14]) was “robust killing of cells that expressed low levels of ABCB1”.

Regarding `CC(=O)[C@]1(O)Cc2c(O)c3c(c(O)c2[C@@H](O[C@H]2C[C@H](N)[C@H](O)[C@H](C)O2)C1)C(=O)c1ccccc1C3=O` [idarubicin, Idarubicin], the “Cell killing profile against relative levels of ABCB1 expression” value in data set [6] (setting [14]) is listed as “robust killing of cells that expressed low levels of ABCB1”.

`C/C(=C\c1csc(C)n1)[C@@H]1C[C@@H]2O[C@]2(C)CCC[C@H](C)[C@H](O)[C@@H](C)C(=O)C(C)(C)[C@@H](O)CC(=O)N1` [ixabepilone, Ixabepilone]: the “Cell killing profile against relative levels of ABCB1 expression” value in data set [6] is reported as “robust killing of cells that expressed low levels of ABCB1”.

Take `CC(=O)O[C@H]1C(=O)[C@@]2(C)[C@H]([C@H](OC(=O)c3ccccc3)[C@]3(O)C[C@H](OC(=O)[C@H](O)[C@@H](NC(=O)c4ccccc4)c4ccccc4)C(C)=C1C3(C)C)[C@]1(OC(C)=O)CO[C@@H]1C[C@@H]2O` [paclitaxel, Paclitaxel]: the “Killing of REC1 cells compared with LS1034 cells (IC50 comparison)” value in [8] is “more robust killing of REC1 cells than LS1034 cells”. Further, the “Change of compound-mediated killing” value in data set [7] (144 hours) is on record as “dampened”. The IC50 in data set [3] (read-out: IC50 in killing LS1034 cells) came to 0.165 µM.

As to `COc1cc2c(cc1OC)CN(CCc1ccc(NC(=O)c3cc(OC)c(OC)cc3NC(=O)c3cnc4ccccc4c3)cc1)CC2` [tariquidar], the “Phenocopy of tepoxalin activity in PRISM” value in [6] was “did not phenocopy tepoxalin”. For the same molecule, in data set [3] (setting [15]), the IC50 is over 10 µM.

With `COc1ccc(-n2nc(CCC(=O)N(C)O)cc2-c2ccc(Cl)cc2)cc1` [tepoxalin], the “Cell killing profile against relative levels of ABCB1 expression” value in data set [6] (setting [14]) is “progressively enhanced killing of cell lines in positive correlation with increasing levels of ABCB1”. Also, the “Killing of REC1 cells compared with LS1034 cells (IC50 comparison)” value in data set [8] was “more robust killing of REC1 cells than LS1034 cells”. Besides, in data set [9], the Cell permeability result was “readily cell permeable”. For the same molecule, the 50% inhibitory concentration (IC50) was 12 µM in [10], 7.8 µM in [3] (setting [15]) and 32 µM in data set [12]. Moreover, in [7] (144 hours), the “Change of compound-mediated killing” value is reported as “enhanced”. Further, the “Dose-response cell killing curves in combination with 2 μM elacridar, across ABCB1 expression/overexpression” value in data set [7] (combination with 2 μM elacridar, Kuramochi versus Kuramochi-ABCB1, 144 hours) is reported as “impervious (did not shift)”. Moreover, the “Effect of elacridar co-treatment on killing of LS1034 cells” value in data set [3] (LS1034, 120H, co-treatment with the MDR1 inhibitor elacridar across dose ranges) is “rescued”. Also, the “Gastric ulcers at an effective dose” value in data set [11] is “fewer gastric ulcers in a rat model than naproxen”. Moreover, the “Effect of sg ABCB1-2 on compound-mediated killing of LS1034 cells” value in data set [13] was “effectively blocked”.

For `C/C=C/C[C@@H](C)C(=O)[C@H]1C(=O)N[C@@H](C(C)C)C(=O)N(C)CC(=O)N(C)[C@@H](CC(C)C)C(=O)N[C@@H](C(C)C)C(=O)N(C)[C@@H](CC(C)C)C(=O)N[C@@H](C)C(=O)N[C@H](C)C(=O)N(C)[C@@H](CC(C)C)C(=O)N(C)[C@@H](CC(C)C)C(=O)N(C)[C@@H](C(C)C)C(=O)N1C` [valspodar], in data set [3] (setting [15]), the IC50 is over 10 µM.

For the molecule `CC[C@]1(O)C[C@@H]2C[N@@](CCc3c([nH]c4ccccc34)[C@@](C(=O)OC)(c3cc4c(cc3OC)N(C=O)[C@H]3[C@@](O)(C(=O)OC)[C@H](OC(C)=O)[C@]5(CC)C=CCN6CC[C@]43[C@@H]65)C2)C1` [vincristine, Vincristine], in [6] (setting [14]), the “Cell killing profile against relative levels of ABCB1 expression” value was “robust killing of cells that expressed low levels of ABCB1”.

For the molecule `O[C@@H](COc1cccc2ncccc12)CN1CCN([C@@H]2c3ccccc3[C@@H]3[C@H](c4ccccc42)C3(F)F)CC1` [zosuquidar], the concentration for half-maximal inhibition (IC50) in [3] (setting [15]) was over 10 µM.

With Romidepsin, the “Cell killing profile against relative levels of ABCB1 expression” value in data set [6] was “robust killing of cells that expressed low levels of ABCB1”.

Take Vinorelbine: the “Cell killing profile against relative levels of ABCB1 expression” value in [6] (setting [14]) is on record as “robust killing of cells that expressed low levels of ABCB1”.

The record behind these values is US12313632B2, “Tepoxalin targeting of ABCB1 overexpressing cancers” (THE BROAD INSTITUTE, INC., priority 2018, dated 2025).
